{
  "source": "patent US20150335677A1",
  "about": "“Argon is a mu opioid receptor antagonist” (priority 2014, published 2015)",
  "key": {"[1]": {"tested_on": "Sprague-Dawley rats", "test": "Time in central area of open field after electric shock conditioning", "format": "in vivo, rat", "details": "argon 75 vol % 3 h day 4 to day 6 vs air; recorded on days 4 to 6 and on day 8; P<0.05", "description": "In a second series of experiments, from day 1 to day 3, additional male Sprague-Dawley rats (n=6 per group) were placed for 10 min in an open field measuring 90 cm×90 cm, which central area measuring 50 cm×50 cm was equipped for delivering an electric shock to the animals that stayed more than 5 s in the area. From day 4 to day 6, the animals were treated for 3 h with medical air or argon at 75 vol % at a flow rate of 5 L/min in a closed chamber. Immediately after being treated with either air or argon from day 4 to day 6, and on day 8, rats were placed in the open field, and recorded during a 10-min period for the time that they spent in the central area whose electrical circuit was switched off."}, "[2]": {"details": "normobaric and hyperbaric pressures of 1 to 4 atmospheres absolute; cited from earlier work"}, "[3]": {"tested_on": "Sprague-Dawley rats", "test": "Social interaction in open field", "format": "in vivo, rat", "details": "argon 75 vol % 3 h day 1 to day 3 vs air; recorded after treatment on days 1 to 3 and on day 7; P<0.05", "description": "(§1) In a first series of experiments, male adult Sprague-Dawley rats (n=6 per group) were treated for 3 h from day 1 to day 3 with ‘medical’ air (composed of 75 vol % nitrogen and 25 vol % oxygen) or argon at 75 vol % (with the remainder being oxygen) at a flow rate of 5 L/min in a closed chamber. None of the animals were habituated to handling with their abdomen side up. Immediately after being treated with either air or argon from day 1 to day 3, and on day 7, rats were handled by an experimenter blind of the rats' gas treatment, with their back placed in the palm of the experimenter and their abdomen side up. The rat's stress level was rated both by the experimenter and an additional observer, also blind of the rats' gas treatment, by counting the number of righting reflex of the animals during a 1-min period on a scale of 0 to 3 with 0 being a total absence of righting reflex and 3 being repetitive righting reflexes. Then, the rats' social interaction was also evaluated. The animals were placed by group of 2 in an open field measuring 90 cm×90 cm for a 10-min period, and the time spent by the animals at a distance comprised between 2 and 5 cm was recorded and taken as a behavioral marker of social interaction."}, "[4]": {"target": "T1, mu opioid receptor (Rattus norvegicus, UniProt P33535)", "T1 construct": "Membrane preparations were obtained from whole brains of rats untreated (n=4); from tissue; host or cells: rat whole brain membranes", "T1 sequence (P33535 whole entry)": "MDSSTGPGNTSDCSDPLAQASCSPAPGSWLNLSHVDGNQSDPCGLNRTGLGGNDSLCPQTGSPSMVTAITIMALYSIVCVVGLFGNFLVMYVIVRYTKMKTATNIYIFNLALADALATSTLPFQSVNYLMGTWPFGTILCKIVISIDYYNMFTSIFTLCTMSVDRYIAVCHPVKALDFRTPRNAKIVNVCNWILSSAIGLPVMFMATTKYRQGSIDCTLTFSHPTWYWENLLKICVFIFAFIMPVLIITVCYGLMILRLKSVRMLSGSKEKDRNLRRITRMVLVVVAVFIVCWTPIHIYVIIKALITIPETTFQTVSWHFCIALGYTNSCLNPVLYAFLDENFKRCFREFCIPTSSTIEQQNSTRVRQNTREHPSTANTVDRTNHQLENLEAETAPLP", "test": "[3H]-DAMGO binding in rat whole-brain membrane protein preparations", "details": "100 vol % argon compared to 100 vol % nitrogen", "description": "Membrane preparations were obtained from whole brains of rats untreated (n=4). The brains were crushed and homogenized in TRIS-HCl 50 mM buffer. After centrifugation, the bases of the vials were suspended in the same volume of TRIS-HCl buffer (×2). When the membrane preparation was obtained, the proteins were quantified to prepare in fine a solution at 1 mg/ml. Proteins were quantified using a BCA protein assay. Then, binding studies were performed as follows: solutions to allow calculating total binding were prepared by adding 385 μL of a TRIS-HCl buffer to 330 μL of proteins and 385 μL of [^3H]-DAMGO at decreasing concentrations (n=2 per dose, N=12). Solutions to allow calculating non-specific binding were prepared in the same fashion with naloxone instead of buffer. The vials containing these solutions were left open and placed in a closed chamber to allow saturating the solutions with 100 vol % nitrogen or argon. 1000 μL of each vial were placed in a 24-well plate coated with polyethylenimine. After drying, 100 μL scintillant was added to allow counting radioactivity (×3). Specific binding was obtained by subtracting non-specific binding to total binding, and Bmax, Kd, and Bmax×1/Kd (mu receptor activity) were calculated."}, "[5]": {"target": "T2, type 2 vesicular monoamine transporter (Rattus norvegicus, UniProt Q01827)", "T2 construct": "Coronal brain slices (400 μm thickness) including the nucleus accumbens; from tissue; host or cells: rat nucleus accumbens brain slices", "T2 sequence (Q01827 whole entry)": "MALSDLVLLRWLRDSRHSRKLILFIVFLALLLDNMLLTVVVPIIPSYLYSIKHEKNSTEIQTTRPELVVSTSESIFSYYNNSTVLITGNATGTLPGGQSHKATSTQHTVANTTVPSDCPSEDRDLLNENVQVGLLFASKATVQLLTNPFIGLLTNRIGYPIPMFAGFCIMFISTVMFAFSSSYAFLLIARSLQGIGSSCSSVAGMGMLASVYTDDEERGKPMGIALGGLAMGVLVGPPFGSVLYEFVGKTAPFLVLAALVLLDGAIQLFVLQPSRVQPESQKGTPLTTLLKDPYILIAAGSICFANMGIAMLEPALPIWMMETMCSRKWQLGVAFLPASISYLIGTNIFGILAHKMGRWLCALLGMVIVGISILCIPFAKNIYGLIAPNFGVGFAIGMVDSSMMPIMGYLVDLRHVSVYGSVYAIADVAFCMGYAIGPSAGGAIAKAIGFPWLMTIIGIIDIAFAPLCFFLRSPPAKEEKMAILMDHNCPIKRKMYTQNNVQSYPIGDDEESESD", "test": "Carrier-mediated and KCl-evoked dopamine release in nucleus accumbens brain slices with amphetamine", "format": "cell-based", "description": "Rats were killed by decapitation and the brains were carefully removed and placed in ice-cold artificial cerebrospinal fluid (aCSF). Coronal brain slices (400 μm thickness) including the nucleus accumbens (anteriority: −1.2 to +2 mm from the bregma) were cut using a tissue chopper. Before being used, brain slices (n=4 per condition) were allowed to recover at room temperature for 1 hour in oxygenated a CSF. […] Control slices were treated with saline solution and air. Carrier-mediated and depolarization-dependent (KCl: 100 mM) dopamine release in the nucleus accumbens were monitored using a polarograph and standard glass-encased nafion-precoated carbon fiber electrodes (David H. N. et al., Biol. Psych., 2006). […] Therefore, in the experiments with argon, argon was only administered after Peak 1 (P1) KCl-evoked dopamine release had returned to baseline (B2)."}, "[6]": {"tested_on": "type A γ-aminobutyric acid (GABA) and benzodiazepine receptors", "details": "pressure of around 15 atmospheres absolute; cited from earlier work"}, "[7]": {"tested_on": "spontaneously hypertensive rats", "test": "Locomotor activity in spontaneously hypertensive rats (ADHD model)", "format": "in vivo, rat", "details": "argon 75 vol % 3 h daily day 1 to day 3 vs medical air; recorded on day 7; P<0.02", "description": "Male spontaneously hypertensive rats (n=7-8 per group), known to show spontaneous locomotor hyperactivity and used as a model for the attention deficit and hyperactivity disorder (ADHD), were treated daily from day 1 to day 3 for 3 h with ‘medical’ air (composed of 75 vol % nitrogen and 25 vol % oxygen) or argon at 75 vol % (with the remainder being oxygen) at a flow rate of 5 L/min in a closed chamber. On day 7, rats were habituated to the activity boxes for 1 h before being recorded for locomotor activity for 1 h 30 min as detailed previously (David et al., Neuropharmacol., 2004)."}, "[8]": {"tested_on": "Sprague-Dawley rats", "test": "Stress level: righting reflex when handled abdomen side up", "format": "in vivo, rat", "details": "argon 75 vol % 3 h day 1 to day 3 vs air; recorded after treatment on days 1 to 3 and on day 7; P<0.05", "description": "as §1"}},
  "data": [
    {"smiles": "[Ar]", "note": "[argon]", "values": [
      {"measurement": "time spent in central area of the open field", "setting": "[1]", "value": "penetrated the central area of the open field to a greater extent"},
      {"measurement": "side effects of breathing argon", "setting": "[2]", "value": "no or minimal side effect"},
      {"measurement": "social interactions", "setting": "[3]", "value": "increased number of social interactions"},
      {"measurement": "1/Kd (affinity) of DAMGO binding", "setting": "[4]", "value": "trend toward reduction"},
      {"measurement": "decrease in mu receptor activity (Bmax×1/Kd)", "setting": "[4]; P<0.05", "value": 60, "unit": "%"},
      {"measurement": "decrease of Bmax (number of receptors) of DAMGO binding", "setting": "[4]; membrane protein preparations", "value": 15, "unit": "%"},
      {"measurement": "effect on Peak 2 KCl-evoked dopamine release", "setting": "[5]; amphetamine in the presence of air or argon, KCl 100 mM", "value": "lack of effect"},
      {"measurement": "effect on amphetamine-induced reduction in Peak 3 (P3) KCl-evoked dopamine release", "setting": "[5]; argon 75 vol % vs air, with amphetamine, KCl 100 mM, P<0.02", "value": "further potentiates the reduction"},
      {"measurement": "effect on amphetamine-induced increase in carrier-mediated dopamine release", "setting": "[5]; argon 75 vol % vs air, with amphetamine, rat nucleus accumbens slices, P<0.02", "value": "decreases the facilitating action of amphetamine"},
      {"measurement": "action at type A GABA and benzodiazepine receptors", "setting": "[6]", "value": "acts as an agonist"},
      {"measurement": "locomotor activity", "setting": "[7]", "value": "lower locomotor activity"},
      {"measurement": "number of righting reflex when handled abdomen side up", "setting": "[8]", "value": "reduced number of righting reflex"}
    ]}
  ]
}
